Reference: paper PMC12040169 (PLOS Biology, 2025)

Assay: in vitro
Conditions: human, hela cells

Row | Compound | viability at 28.5 h, 10 µM
1 | O=P(O)(O)CCCc1ccccc1 [CBK012021] | 80.5%

Same assay, conditions: human, hela cells, % viability

Row | Compound | viability at 28.5 h, 10 µM
2 | C#CCNC(=O)C1CCN(c2nc3ccccc3n2CC)CC1 [CBK283923] | 89.4%
3 | CC(C)(C)OC(=O)NCc1ccc(CNCc2cc(F)cc(F)c2)cc1 [CBK056707] | 107%
4 | CCOc1ccccc1OCCCOc1ccc(C(=O)O)cc1 [CBK295144] | 110%
5 | O=S(=O)(c1ccccc1Br)N1CCOCC1 [CBK062404] | 96.9%
6 | CC(=O)c1ccc(C(=O)Nc2nc3c(s2)COc2ccccc2-3)cc1 [CBK287363] | 81.9%
7 | COc1cccc(C(NC(=O)c2cccc(Cn3ccnc3C)c2)c2ccccc2)c1 (stereo not shown) [CBK285620] | 111%
8 | O=C1CN=C(N2C(=O)C3C4C=CC(C4)C3C2=O)C(=O)N1 (stereo not shown) [CBK028818] | 89.7%
9 | O=C(O)CCC(=O)c1c[nH]c2ccccc12 [CBK261275] | 110%
10 | CC(C)c1ccc(C(=O)N2CCC(n3cnc4cccnc43)CC2)cc1 [CBK282370] | 82.3%
11 | OCCN1CSC(=S)N(CCc2ccc(Cl)cc2)C1 [CBK015713] | 122%
12 | Nc1ccc(-c2ccc(OC(F)(F)F)cc2)c2ccccc12 [CBK084327] | 84.6%
13 | COCCn1c(SCC(=O)N2CCNC2=O)nc2ccccc21 [CBK305851] | 97.3%
14 | COc1ccc(OCC(O)Cn2c(CCCO)nc3ccccc32)cc1 (stereo not shown) [CBK305579] | 101%
15 | COc1ccc(CCC(=O)Nc2cccc(OCCC3CCNCC3)c2)cc1OC [CBK138350] | 95.6%
16 | CNCc1cc(Br)c(OCC(=O)Nc2ccccc2OC)c(OC)c1 [CBK107772] | 106%
17 | CN(C)CCN(C)Cc1ccc2c(c1)Cc1ccccc1-2 [CBK261856] | 93.3%
18 | CC(NC(=O)C1CCN(Cc2ccc(Oc3ccccc3)cc2)CC1)c1ccccc1 (stereo not shown) [CBK148618] | 107%
19 | O=C(O)CCC(=O)N[C@H]1CCN2C(=O)c3cc(-c4ccc(Cl)cc4)ccc3NC(=O)[C@H]12 [CBK289275] | 115%
20 | COc1ccc(S(=O)(=O)Nc2ccsc2C(=O)N2CCN(C)CC2)cc1OC [CBK004627] | 95.3%
21 | O=C1NN(c2ccc(F)c(Cl)c2)C(=O)/C1=C/c1ccc(-c2ccc(Cl)cc2)o1 [CBK095978] | 98.1%
22 | COc1ccc(CC(=O)N2CCNC(=O)C2Cc2ccccc2-c2ccccc2)cc1OC (stereo not shown) [CBK285827] | 102%
23 | O=C(Oc1ccc(N(C(=O)c2ccncc2)S(=O)(=O)c2cccs2)cc1)c1ccncc1 [CBK265619] | 98.7%
24 | Cc1n[nH]c(C)c1CNC(=O)C1CCN(Cc2ccc(F)cc2)CC1 [CBK282502] | 92%

Row | Compound | viability at 28.5 h, 10 µM
25 | COCc1cn(C2CC(O)C(CO)O2)c(=O)[nH]c1=O (stereo not shown) [CBK201230] | 99.8%
26 | Cc1csc(C(Cc2cccs2)NCC2CCOC2)n1 (stereo not shown) [CBK285051] | 110%
27 | O=C1CC2(CCCCC2)C(C(=O)O)N1 (stereo not shown) [CBK009895] | 114%
28 | Cn1nnnc1SCCNC(=O)Nc1cccc(CN2CCCCC2)c1 [CBK306872] | 97.3%
29 | O=C(NCCN1CCOCC1)NC(=O)c1ccc(Cl)cc1 [CBK269446] | 88.2%
30 | CCOc1nc2c(c(C(F)(F)F)n1)CC(C)C/C2=C\c1ccccc1 (stereo not shown) [CBK265800] | 94.8%
31 | Cn1c(C(N)=O)cc(=O)n1-c1ccc([N+](=O)[O-])cc1 [CBK015873] | 101%
32 | O=C(NCCCc1ccccc1Cl)c1ccc(=O)n(CC(=O)N2CCCCC2)c1 [CBK286078] | 85.9%
33 | Cc1ccsc1CCNC(=O)C1(Oc2cccnc2C)CCNCC1 [CBK307374] | 84.2%
34 | CC1CCN(CC(=O)Nc2sc3c(c2C(=O)NCc2ccccc2)CCCC3)CC1 [CBK268387] | 107%
35 | CCOC(=O)c1c(NC(=O)CSc2nncn2C)sc(C)c1C [CBK267970] | 89.8%
36 | CC(C)(C)C1=CC2=NC3(CCCC3)[C@@H]3C[C@@H](O)[C@@H](O)[C@@H]3N2O1 [CBK303245] | 95.1%
37 | O=c1n(-c2ccc3c(c2)OCO3)ccn1S(=O)(=O)c1ccc2c(c1)OCCO2 [CBK106636] | 87.8%
38 | OC(CN1CCC(O)(Cn2cnc3ccccc32)CC1)c1ccc(-c2ccccc2)cc1 (stereo not shown) [CBK286437] | 89%
39 | Fc1ccc([C@@H]2CN(Cc3ccccn3)C[C@H]2c2cc[nH]n2)cc1 [CBK285416] | 104%
40 | Cn1c(OCc2cccnc2)nc2c1c(=O)n(Cc1ccc(Cl)c(Cl)c1)c(=O)n2C [CBK267498] | 84.2%
41 | CC(=O)NC1CCN(CC2(c3cccc(F)c3)CCCC2)CC1 [CBK282590] | 95.7%
42 | COc1cc(-c2cncc(Nc3ccc4c(c3)OC(F)(F)C(F)(F)O4)n2)cc(OC)c1OC [CBK065138] | 94.4%
43 | COC(=O)c1ccccc1NC(=O)CSCc1ccc(Cl)cc1Cl [CBK131712] | 86.2%
44 | COCCCn1c(N)c(C(=O)NCC(C)C)c2nc3ccccc3nc21 [CBK126495] | 84.9%
45 | CC(=O)N1CCc2c([nH]c3ccccc23)C1CNCc1ccc(F)cc1 (stereo not shown) [CBK066968] | 96.6%
46 | C=CCn1c(COc2cccc(Cl)c2)nnc1SCC(=O)O [CBK269389] | 90.2%
47 | COc1ccccc1CC(CC(=O)O)C(=O)O (stereo not shown) [CBK261508] | 91.6%

Row | Compound | viability at 28.5 h, 10 µM
48 | CC1CCCCC1NC(=O)c1ncoc1-c1cccs1 (stereo not shown) [CBK283973] | 84.8%
49 | Cc1cccc2sc(NC(=O)c3ccccc3)nc12 [CBK287300] | 102%
50 | O=C(Nc1cccnc1)N1CCCCC1CO (stereo not shown) [CBK155990] | 96.9%
51 | CCOc1ccc(-c2nc(-c3cccc(NC(=O)c4ccccc4C(=O)O)c3)no2)cc1 [CBK299832] | 85.2%
52 | Cc1c(CN(Cc2ccc(F)cc2)CC2CCCO2)cnn1C (stereo not shown) [CBK282589] | 86%
53 | Nc1ncnc(Nc2cccc(F)c2)n1 [CBK017447] | 91.7%
54 | COCCn1cnnc1C(C)NC(=O)c1nc2ccccc2[nH]1 (stereo not shown) [CBK307366] | 101%
55 | COc1cccc(-c2cnc(N)c(N3CCN(CCN(C)C)CC3)n2)c1 [CBK063561] | 108%
56 | NS(=O)(=O)c1cccc2c1CC1(CC2)OCCO1 [CBK010703] | 84.6%
57 | CN(Cc1c(C2CCNCC2)[nH]c2ncccc12)C1CCCCC1 [CBK285079] | 93.3%
58 | CCOC(=O)C1CCN(Cc2cccs2)CC1 [CBK026999] | 86.3%
59 | Nc1ncc(-c2cc(C(F)(F)F)cc(C(F)(F)F)c2)nc1-c1ccc(O)cc1 [CBK122503] | 98.3%
60 | C[N+]1(C)CCCC1c1cc(Br)cnc1N (stereo not shown) [CBK217873I] | 90.8%
61 | Brc1ccc(NCc2ccccn2)cc1 [CBK026347] | 104%
62 | CC(=O)Nc1cccc(-n2cnnc2SCC2CCCCC2)c1 [CBK305054] | 96.2%
63 | COC1CCC(C(=O)Nc2cnc(-c3ccc(F)c(Cl)c3)c(-c3ccc(C(C)=O)s3)n2)CC1 (stereo not shown) [CBK036718] | 99.3%
64 | O=C(Cc1ccccc1)NC(Cc1ccc(Cl)cc1)C(=O)O (stereo not shown) [CBK286976] | 92.7%
65 | NC(=O)CN1CCCN(c2ccnc(OCCN3CCOCC3)n2)CC1 [CBK083804] | 89.9%
66 | COc1ccc(OCC(=O)N/N=C/c2ccc([N+](=O)[O-])s2)c(I)c1 [CBK261374] | 93.1%
67 | COc1ccc(Br)cc1S(=O)(=O)NCc1cccnc1 [CBK264023] | 90.7%
68 | CC1CNCCN1C(=O)c1ccnc(N2CCN(C)CC2)c1 (stereo not shown) [CBK304122] | 88.6%
69 | C[C@@H]1[C@H](c2ccccc2)OC(=O)N1C1CCN(S(=O)(=O)c2cccs2)CC1 [CBK043302] | 93.9%
70 | O=C(COc1ccc(N2CC(C(=O)O)CC2=O)cc1)Nc1cccc(C(F)(F)F)c1 (stereo not shown) [CBK268096] | 100%

Row | Compound | viability at 28.5 h, 10 µM
71 | COc1cc(CC(=O)Nc2cccc(-c3ccc(OC4CCNCC4)cc3)n2)cc(OC)c1OC [CBK138351] | 83.4%
72 | Cc1ccc([N+](=O)[O-])c(OCCNCCN(C)C)c1 [CBK267822C] | 89%
73 | COc1cc(Nc2cccc(-c3ccco3)n2)cc(OC)c1OC [CBK037724] | 108%
74 | O=C1CN(C(=O)NC2CCc3ccccc32)CCN1 (stereo not shown) [CBK155878] | 97.5%
75 | O=C1/C(=C/c2ccc(OCc3ccccc3Cl)c(Cl)c2)SC(=S)N1Cc1cccnc1 [CBK264702] | 92.4%
76 | CC(C)c1ccccc1NC(=O)NC(=O)C1CCN(CCc2ccc(C#N)cc2)CC1 [CBK035010] | 90.3%
77 | c1ccc2c(CCN3CCC(Oc4nccnc4OCCN4CCOCC4)CC3)c[nH]c2c1 [CBK082939T] | 88.6%
78 | CC(=O)Nc1ccc(Cc2nc(C3CC3)no2)cc1 [CBK305197] | 92.1%
79 | O=C(O)c1ccccc1-c1ccccc1C(=O)NCCCO [CBK267197] | 92.3%
80 | COc1ccc(Cl)cc1NC(=O)CCCn1cnc([N+](=O)[O-])n1 [CBK268882] | 83.2%
81 | O=C(CCNS(=O)(=O)c1ccc(Cl)cc1)N1CCN(Cc2ccccc2)CC1 [CBK269405] | 101%
82 | N#Cc1c(C(F)(F)F)cc(-c2ccco2)nc1SCc1ccccn1 [CBK267450] | 88.5%
83 | CC(C)(C)C(=O)N1CCc2c([nH]c3ccccc23)C12CCNC2 (stereo not shown) [CBK059462] | 97.5%
84 | Cc1cc2nc(/C(C#N)=C\c3cn(CC(=O)Nc4ccc(F)cc4)c4ccccc34)[nH]c2cc1C [CBK269142] | 113%
85 | Cc1n[nH]c(-c2ccccc2NS(=O)(=O)c2cnn(C(C)C)c2)n1 [CBK306377] | 84.1%
86 | O=C(NC1CCCN(CC(F)(F)F)C1=O)c1cnc(-c2ccncc2)s1 (stereo not shown) [CBK306175] | 82.6%
87 | Cc1ccc(OCc2occc2C(=O)N2CCc3[nH]cnc3C2)cc1 [CBK307717] | 85.6%
88 | CC(C)(C)c1ccc(-c2nc3ncccc3cc2O)cc1 [CBK073703] | 74.5%
89 | Cc1nc(C)c(C(=O)N2CCCC(c3cc4cccnc4[nH]3)C2)s1 (stereo not shown) [CBK284995] | 97.4%
90 | COc1ccc(-c2nc(CCN)n3ccccc23)cc1 [CBK035583] | 94.3%
91 | Cn1cc(NC(=O)C2CCCN(c3ncccn3)C2)cn1 (stereo not shown) [CBK304394] | 108%
